For assay [1], the target named is T1, T7 RNA polymerase (Escherichia phage T7, UniProt P00573). Put plainly: IVT capping rate of mRNA by LC-MS after RNase H cleavage. The format is biochemical. As to conditions: for Capping rate: LC-MS of mRNA transcribed with the cap analog; for capping efficiency compared with Comparative Example 1 (in words): text summary of Table 4. As for the experimental part:
(§1) In-vitro synthesis of mRNA cap analogs modified with vinylphosphonic acid: Firstly, a plasmid was linearized with NotI and digested at […] overnight. A DNA template was extracted. mRNAs were synthesized by in-vitro transcription using the vinylphosphonic acid-modified mRNA cap analogs of Examples 1-7 and compounds 10-13, 16, 17, 25, 31 and 34, and the cap analog of Comparative Example 1 as cap structures, respectively.
(§2) Note: During the experiment, the volume of the materials required for the system was calculated firstly, and then sample loading was performed. Firstly, sterile enzyme-free water was added into the system, and then 10× buffer, NTPs, and the cap analog were sequentially added. The mixture was uniformly mixed and then gently centrifuged, followed by addition of the nuclease inhibitor, the inorganic pyrophosphatase, the T7 RNA polymerase, and the linearized DNA template. The mixture was well mixed, then gently centrifuged, and incubated at 37° C. After 2 h, DNase I (1 U) was added, and the mixture was incubated at 37° C. for another 30 min to remove the DNA template. RNA purification was then performed (usually using the magnetic bead purification method). The purified mRNA was dissolved in sterile enzyme-free water, and then quantitative detection was performed by using Nanodrop One.
Liquid chromatography-mass spectrometry (LC-MS) was used to detect the IVT capping rates of mRNAs with different starting cap analogs. Firstly, a labeled (usually biotin-labeled) DNA probe matched with the starting base of mRNA as the transcript product was required to be designed, and streptavidin-labeled magnetic beads were washed, and then incubated with the synthesized DNA probe, mRNA and 10× RNase H reaction buffer with slowly mixing at room temperature for 30 min. 20 L of RNase H (5 U/μL) was then added, and the mixture was incubated at 37° C. for 3 h, with uniform mixing every half hour. After the incubation was completed, the magnetic beads were cleaned, and then 100 μL of 75% methanol heated to 80° C. was added to the cleaned magnetic beads. The mixture was heated to 80° C. on a heating plate, held for 3 min, and then placed on a magnetic rack. The supernatant was pipetted and dried at room temperature for 45 min to 10 Lby using an evaporation centrifuge. The sample was then resuspended in 50 μL of 100 μM EDTA/1% MeOH for LC-MS analysis to determine the capping of RNA in the transcription reaction. Due to the significant difference in molecular weight between capped and uncapped bases, the capping rates of mRNA transcription initiated with different cap analogs can be determined by using the difference in molecular weight.

The target of assay [2] is eukaryotic initiation factor (elF4E) (Homo sapiens, UniProt P06730). Put plainly: Assay of binding ability to eukaryotic initiation factor (elF4E), Biacore T100. As to conditions: for Kd: cap analog to elF4E protein, running buffer pH 6.0 or 7.4, read-out: Binding constant (converted). As for the experimental part: Test method: Firstly, experimental samples, including the cap analog samples of Examples 1-7, compounds 10-13, 16, 17, 25, 31 and 34, and Comparative Example 1, were diluted with a running buffer (50 mM phosphate, 100 mM sodium chloride, and 0.01% vol/vol Tween 20, pH 6.0 or 7.4). The sample injection time was […], the sample injection flow rate was 20 L/min, and the dissociation time was […]. The residual samples were eluted with a regeneration buffer (10 mM HEPES, 150 mM NaCl, and 0.010% vol/vol Tween 20, pH 7.4) for 30 s at a flow rate of 30 μL/min. Finally, through analysis by Biacore T100 evaluation software (version 2.0.2), sensorgrams were generated and the binding constants were calculated.
Chain of eukaryotic initiation factor (elF4E) (P06730 whole entry): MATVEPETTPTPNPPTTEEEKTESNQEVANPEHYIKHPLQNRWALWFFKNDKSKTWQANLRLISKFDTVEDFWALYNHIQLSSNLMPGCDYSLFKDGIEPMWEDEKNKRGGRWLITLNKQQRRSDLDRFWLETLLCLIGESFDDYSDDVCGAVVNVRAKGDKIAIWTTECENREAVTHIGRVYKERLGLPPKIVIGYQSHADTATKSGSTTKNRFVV
(SPR reads the build-up and loss of mass on a sensor chip optically.)

In assay [3] the target is T1, T7 RNA polymerase. Put plainly: mRNA in-vitro transcription yield with cap analog (T7 IVT, Nanodrop One quantification). The class given is biochemical. Particulars: for Yield: mRNA from 20 μL IVT system, 1 μl 100 mM cap analog, 1 μg template, 37° C. 2 h; for in-vitro transcription yield compared with Comparative Example 1 (in words): text summary of Table 4. How it is done: as §1, §2

In the next assay the test system is 293T cells. Put plainly: mRNA translation efficiency: eGFP mRNA capped with the analogs transfected into 293T cells, GFP fluorescence. As to conditions: summary of Table 6. The class given is cell-based. How it is done:
Test method: In-vitro transcription was initiated with the cap analogs of Examples 1-7, compounds 10-13, 16, 17, 25, 31 and 34, and Comparative Example 1 by using an eGFP coding sequence as a DNA template. The different mRNA products obtained were then transfected into 293T cells. The 293T cells were plated (onto a 24-well plate) at (0.5-1)×10^5 cells/well. During the transfection, in general, the cell density was preferably 60%-80%; […] was transfected into each well, and the Lipofectamine MessengerMAX Transfection Reagent (Invitrogen) was selected as the transfection reagent and used according to its usage instructions. The transfected cells were placed in an incubator at 37° C. with CO2. After transfection for 4-6 h, the medium was replaced with a fresh complete medium. After incubation in the incubator at 37° C. with CO2 for 24 h, the fluorescence intensity of GFPs in the cells was observed through a fluorescence microscope, and the fluorescence intensity ratios of Examples 1-7 and compounds 10-13, 16, 17, 25, 31 and 34 relative to Comparative Example 1 were calculated based on the fluorescence intensities.

Seven molecules from US20260176275A1, “VINYLPHOSPHONIC ACID-MODIFIED MRNA CAP ANALOG, METHOD FOR PREPARING SAME, AND USE THEREOF” (Jiangsu Synthgene Biotechnology Co., Ltd., priority 2022, published 2026) can be followed below.

T1 sequence (P00573 whole entry): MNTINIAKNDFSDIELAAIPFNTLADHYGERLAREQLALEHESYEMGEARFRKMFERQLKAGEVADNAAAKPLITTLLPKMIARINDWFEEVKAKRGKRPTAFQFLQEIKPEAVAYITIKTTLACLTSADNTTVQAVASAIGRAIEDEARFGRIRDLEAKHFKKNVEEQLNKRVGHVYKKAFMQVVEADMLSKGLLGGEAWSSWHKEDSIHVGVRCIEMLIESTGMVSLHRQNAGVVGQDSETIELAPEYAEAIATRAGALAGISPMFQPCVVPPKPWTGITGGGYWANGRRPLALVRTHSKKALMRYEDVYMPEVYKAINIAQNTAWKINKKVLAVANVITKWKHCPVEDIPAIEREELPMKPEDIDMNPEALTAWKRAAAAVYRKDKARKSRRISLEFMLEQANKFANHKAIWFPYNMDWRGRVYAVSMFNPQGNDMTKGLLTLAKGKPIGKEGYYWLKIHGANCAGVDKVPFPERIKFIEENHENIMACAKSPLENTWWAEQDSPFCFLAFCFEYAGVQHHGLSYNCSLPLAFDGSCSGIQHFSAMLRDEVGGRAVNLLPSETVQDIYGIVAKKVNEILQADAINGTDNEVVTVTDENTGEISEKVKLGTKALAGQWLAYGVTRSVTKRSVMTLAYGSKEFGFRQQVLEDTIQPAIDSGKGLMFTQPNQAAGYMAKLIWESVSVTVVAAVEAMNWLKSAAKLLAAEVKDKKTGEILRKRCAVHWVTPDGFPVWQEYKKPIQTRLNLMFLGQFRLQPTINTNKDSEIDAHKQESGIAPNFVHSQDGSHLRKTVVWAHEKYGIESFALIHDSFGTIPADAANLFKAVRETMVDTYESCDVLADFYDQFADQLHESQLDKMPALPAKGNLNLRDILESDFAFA

On T7 RNA polymerase [1], `COC1C(OP(=O)(O)/C=C/[C@H]2O[C@@H](n3cnc4c(=O)[nH]c(N)nc43)C(O)C2O)[C@@H](COP(=O)(O)OP(=O)(O)OP(=O)(O)OC[C@H]2O[C@@H](n3c[n+](C)c4c(=O)[nH]c(N)nc43)C(O)C2O)O[C@H]1n1cnc2c(N)ncnc21` (stereo partly shown) [Example 1] returned a Capping rate of 96.4%. Moreover, the Kd in assay [2] is 313 nM. Besides, the Yield on T7 RNA polymerase [3] came to 117 µg.
For `COC1C(OP(=O)(O)OC[C@H]2O[C@@H](n3cnc4c(=O)[nH]c(N)nc43)C(O)C2O)[C@@H](COP(=O)(O)OP(=O)(O)OP(=O)(O)/C=C/[C@H]2O[C@@H](n3c[n+](C)c4c(=O)[nH]c(N)nc43)C(O)C2O)O[C@H]1n1cnc2c(N)ncnc21` (stereo partly shown) [Example 2], in that order: 96.3%, 216 nM and 125 µg.
For `COC1C(OP(=O)(O)OC[C@H]2O[C@@H](n3cnc4c(=O)[nH]c(N)nc43)C(O)C2O)[C@@H](/C=C/P(=O)(O)OP(=O)(O)OP(=O)(O)OC[C@H]2O[C@@H](n3c[n+](C)c4c(=O)[nH]c(N)nc43)C(O)C2O)O[C@H]1n1cnc2c(N)ncnc21` (stereo partly shown) [Example 3], in that order: 95.3%, 240 nM and 122 µg.
As for `COC1[C@@H](OP(=O)(O)/C=C/[C@H]2O[C@@H](n3cnc4c(=O)[nH]c(N)nc43)C(O)[C@H]2O)[C@@H](COP(=O)(O)OP(=O)(O)OP(=O)(O)/C=C\[C@H]2O[C@@H](n3c[n+](C)c4c(=O)[nH]c(N)nc43)[C@@H](O)C2O)O[C@H]1n1cnc2c(N)ncnc21` (stereo partly shown) [Example 4], on T7 RNA polymerase [1], the Capping rate came to 94.5% and the “capping efficiency compared with Comparative Example 1 (in words)” value is recorded as “significantly lower than those of Comparative Example 1”. For the same molecule, in assay [2], the Kd is 377 nM. In addition, at T7 RNA polymerase [3], the Yield amounted to 106 µg and the “in-vitro transcription yield compared with Comparative Example 1 (in words)” value was “significantly lower than those of Comparative Example 1”.
Consider `COC1[C@@H](OP(=O)(O)OC[C@H]2O[C@@H](n3cnc4c(=O)[nH]c(N)nc43)C(O)[C@H]2O)[C@@H](/C=C\P(=O)(O)OP(=O)(O)OP(=O)(O)/C=C\[C@H]2O[C@@H](n3c[n+](C)c4c(=O)[nH]c(N)nc43)[C@@H](O)C2O)O[C@H]1n1cnc2c(N)ncnc21` (stereo partly shown) [Example 5], for which, at T7 RNA polymerase [1], the Capping rate came out at 90.2% and the “capping efficiency compared with Comparative Example 1 (in words)” value was “significantly lower than those of Comparative Example 1”. In addition, the Kd in assay [2] was 395 nM. Moreover, at T7 RNA polymerase [3], the Yield worked out at 102 µg and the “in-vitro transcription yield compared with Comparative Example 1 (in words)” value is on record as “significantly lower than those of Comparative Example 1”.
With `COC1[C@@H](OP(=O)(O)/C=C/[C@H]2O[C@@H](n3cnc4c(=O)[nH]c(N)nc43)C(O)[C@H]2O)[C@@H](/C=C\P(=O)(O)OP(=O)(O)OP(=O)(O)OC[C@H]2O[C@@H](n3c[n+](C)c4c(=O)[nH]c(N)nc43)[C@@H](O)C2O)O[C@H]1n1cnc2c(N)ncnc21` (stereo partly shown) [Example 6], at T7 RNA polymerase [1], the Capping rate is reported as 87.3% and the “capping efficiency compared with Comparative Example 1 (in words)” value is “significantly lower than those of Comparative Example 1”. The Kd in assay [2] was 362 nM. Besides, at T7 RNA polymerase [3], the Yield was 96 µg and the “in-vitro transcription yield compared with Comparative Example 1 (in words)” value is reported as “significantly lower than those of Comparative Example 1”.
For the molecule `COC1[C@@H](OP(=O)(O)/C=C/[C@H]2O[C@@H](n3cnc4c(=O)[nH]c(N)nc43)C(O)[C@H]2O)[C@@H](/C=C\P(=O)(O)OP(=O)(O)OP(=O)(O)/C=C\[C@H]2O[C@@H](n3c[n+](C)c4c(=O)[nH]c(N)nc43)[C@@H](O)C2O)O[C@H]1n1cnc2c(N)ncnc21` (stereo partly shown) [Example 7], at T7 RNA polymerase [1], the Capping rate is listed as 82.6% and the “capping efficiency compared with Comparative Example 1 (in words)” value was “significantly lower than those of Comparative Example 1”. The “binding constant to elF4E protein compared with Comparative Example 1 (in words)” value in assay [2] (Table 5) is listed as “the lowest as compared to Comparative Example 1”. Besides, in assay [2], the Kd is 1160 nM. For the same molecule, at T7 RNA polymerase [3], the Yield came to 85 µg and the “in-vitro transcription yield compared with Comparative Example 1 (in words)” value was “significantly lower than those of Comparative Example 1”. The “intracellular translation effect of mRNA compared with Comparative Example 1 (in words)” value in the assay on 293T cells is recorded as “the lowest as compared to Comparative Example 1”.
